Assay results reported in ChEMBL document CHEMBL1201862, “PubChem BioAssay data set” (2004).
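Method: 48-hour compound exposure of cells in 96-well plates, five concentrations, linear interpolation of endpoints. The concentration for 50% growth inhibition is given as GI50.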 Calls of active or inactive are those of the source. Rule as the data show it: active = GI50 up to about 1.1 µM and inactive = higher.

How the values were obtained:
Assay in all cases: NCI-60 cell line screen, 48 h
NCI-H226 = system: NCI-H226
SF-268 = system: SF-268
SF-539 = system: SF-539
RXF 393 = system: RXF 393
M14 = system: M14
HOP-62 = system: HOP-62
SNB-75 = system: SNB-75
OVCAR-4 = system: OVCAR-4
CCRF-CEM = system: CCRF-CEM
UACC-257 = system: UACC-257
HL-60 = system: HL-60
Hs-578T = system: Hs-578T
MDA-N = system: MDA-N
HCT-15 = system: HCT-15
ACHN = system: ACHN
EKVX = system: EKVX
MDA-MB-435 = system: MDA-MB-435
K562 = system: K562
SK-MEL-28 = system: SK-MEL-28
MDA-MB-231 = system: MDA-MB-231
SNB-19 = system: SNB-19
HOP-92 = system: HOP-92
SN12C = system: SN12C
CAKI-1 = system: CAKI-1
RPMI-8226 = system: RPMI-8226
NCI/ADR-RES = system: NCI/ADR-RES
COLO 205 = system: COLO 205
MCF7 = system: MCF7
OVCAR-3 = system: OVCAR-3
786-0 = system: 786-0
T47D = system: T47D
LOX IMVI = system: LOX IMVI
NCI-H522 = system: NCI-H522
U-251 = system: U-251
OVCAR-5 = system: OVCAR-5
UACC-62 = system: UACC-62
OVCAR-8 = system: OVCAR-8
HT-29 = system: HT-29
Malme-3M = system: Malme-3M
SW-620 = system: SW-620
IGROV-1 = system: IGROV-1
HCT-116 = system: HCT-116
SK-MEL-5 = system: SK-MEL-5
UO-31 = system: UO-31
PC-3 = system: PC-3
MOLT-4 = system: MOLT-4
SF-295 = system: SF-295
A549 = system: A549
DU-145 = system: DU-145
SR = system: SR
KM12 = system: KM12
BT-549 = system: BT-549
SK-MEL-2 = system: SK-MEL-2
NCI-H23 = system: NCI-H23
NCI-H460 = system: NCI-H460
A498 = system: A498
TK-10 = system: TK-10
SK-OV-3 = system: SK-OV-3
HCC 2998 = system: HCC 2998

Measured: GI50

Cc1ccc(S(=O)(=O)N2CCC(C(=O)O)(c3ccccc3)CC2)cc1
inactive: NCI-H226 > 100 µM | SF-268 > 100 µM | SF-539 > 100 µM | RXF 393 > 100 µM | M14 > 100 µM | HOP-62 > 100 µM | SNB-75 > 100 µM | OVCAR-4 > 100 µM | CCRF-CEM > 100 µM | UACC-257 > 100 µM | HL-60 > 100 µM | Hs-578T > 100 µM | MDA-N > 100 µM | ACHN > 100 µM | EKVX > 100 µM | MDA-MB-435 > 100 µM | K562 > 100 µM | SK-MEL-28 > 100 µM | MDA-MB-231 > 100 µM | SNB-19 > 100 µM | HOP-92 > 100 µM | SN12C > 100 µM | CAKI-1 > 100 µM | RPMI-8226 > 100 µM | NCI/ADR-RES > 100 µM | COLO 205 > 100 µM | MCF7 > 100 µM | OVCAR-3 > 100 µM | 786-0 > 100 µM | T47D > 100 µM | LOX IMVI > 100 µM | NCI-H522 > 100 µM | U-251 > 100 µM | OVCAR-5 > 100 µM | UACC-62 > 100 µM | OVCAR-8 > 100 µM | HT-29 > 100 µM | Malme-3M > 100 µM | SW-620 > 100 µM | IGROV-1 > 100 µM | HCT-116 > 100 µM | SK-MEL-5 > 100 µM | UO-31 > 100 µM | PC-3 > 100 µM | MOLT-4 > 100 µM | SF-295 > 100 µM | A549 > 100 µM | DU-145 > 100 µM | SR > 100 µM | KM12 > 100 µM | BT-549 > 100 µM | SK-MEL-2 > 100 µM | NCI-H23 > 100 µM | NCI-H460 > 100 µM | A498 > 100 µM | TK-10 > 100 µM | SK-OV-3 > 100 µM
> 100 µM: HCT-15

CCN1CSC(=S)N(CC)C1
inactive: NCI-H226 > 100 µM | SF-268 > 100 µM | SF-539 27.7 µM | RXF 393 > 100 µM | M14 50.6 µM | HOP-62 24 µM | SNB-75 44.2 µM | OVCAR-4 > 100 µM | CCRF-CEM 71.6 µM | UACC-257 > 100 µM | HL-60 15 µM | Hs-578T > 100 µM | MDA-N 79.8 µM | ACHN > 100 µM | EKVX > 100 µM | MDA-MB-435 46.8 µM | K562 > 100 µM | SK-MEL-28 > 100 µM | MDA-MB-231 19.5 µM | SNB-19 > 100 µM | HOP-92 > 100 µM | SN12C > 100 µM | RPMI-8226 50.9 µM | NCI/ADR-RES > 100 µM | COLO 205 54.8 µM | MCF7 41 µM | OVCAR-3 37.8 µM | 786-0 28.6 µM | T47D > 100 µM | NCI-H522 22.6 µM | U-251 50.8 µM | HCC 2998 > 100 µM | OVCAR-5 > 100 µM | UACC-62 38.8 µM | OVCAR-8 98.4 µM | HT-29 41.1 µM | Malme-3M 52.7 µM | SW-620 36.6 µM | IGROV-1 75.3 µM | HCT-116 41.3 µM | SK-MEL-5 76.9 µM | UO-31 > 100 µM | PC-3 > 100 µM | MOLT-4 34.4 µM | SF-295 > 100 µM | A549 > 100 µM | DU-145 > 100 µM | KM12 98.2 µM | BT-549 > 100 µM | SK-MEL-2 > 100 µM | NCI-H23 48.3 µM | NCI-H460 56.2 µM | A498 27.8 µM | TK-10 > 100 µM | SK-OV-3 > 100 µM
73.3 µM: HCT-15

CN1CCN(Cc2cc3c(nn2)-c2ccccc2C3=O)CC1
26.2 µM: HCT-15
inactive: NCI-H226 > 100 µM | SF-268 > 100 µM | SF-539 72.9 µM | RXF 393 > 100 µM | M14 31.2 µM | SNB-75 > 100 µM | CCRF-CEM 54.6 µM | UACC-257 19.2 µM | HL-60 21 µM | Hs-578T > 100 µM | MDA-N 24.4 µM | ACHN 26.2 µM | EKVX 46.3 µM | MDA-MB-435 23.7 µM | K562 47.1 µM | MDA-MB-231 > 10 µM | SNB-19 43.5 µM | HOP-92 > 100 µM | CAKI-1 > 100 µM | RPMI-8226 > 100 µM | NCI/ADR-RES 50.1 µM | COLO 205 17.7 µM | MCF7 30.8 µM | 786-0 40.6 µM | T47D 49 µM | NCI-H522 14.3 µM | U-251 44.3 µM | OVCAR-5 > 100 µM | UACC-62 44.4 µM | OVCAR-8 95.7 µM | HT-29 53 µM | Malme-3M 19.1 µM | SW-620 52.7 µM | IGROV-1 38.5 µM | HCT-116 30.4 µM | SK-MEL-5 16.9 µM | UO-31 32.7 µM | PC-3 37.8 µM | MOLT-4 38.7 µM | SF-295 > 100 µM | A549 > 100 µM | DU-145 > 100 µM | SR 18.3 µM | KM12 59.2 µM | BT-549 53.6 µM | SK-MEL-2 > 100 µM | NCI-H23 35 µM | NCI-H460 34.4 µM | TK-10 > 100 µM | SK-OV-3 > 100 µM

CN(C)CCCN=C(N)N
inactive: NCI-H226 > 100 µM | SF-268 > 100 µM | SF-539 > 100 µM | RXF 393 > 100 µM | M14 > 100 µM | HOP-62 > 100 µM | SNB-75 > 100 µM | OVCAR-4 > 100 µM | CCRF-CEM > 100 µM | UACC-257 > 100 µM | HL-60 85.3 µM | Hs-578T > 100 µM | MDA-N > 100 µM | ACHN > 100 µM | EKVX > 100 µM | MDA-MB-435 > 100 µM | K562 > 100 µM | SK-MEL-28 > 100 µM | MDA-MB-231 > 100 µM | SNB-19 > 100 µM | HOP-92 > 100 µM | SN12C > 100 µM | CAKI-1 > 100 µM | RPMI-8226 > 100 µM | NCI/ADR-RES > 100 µM | COLO 205 > 100 µM | MCF7 > 100 µM | OVCAR-3 > 100 µM | 786-0 > 100 µM | T47D > 100 µM | LOX IMVI > 100 µM | NCI-H522 > 100 µM | U-251 > 100 µM | OVCAR-5 > 100 µM | UACC-62 > 100 µM | OVCAR-8 > 100 µM | HT-29 > 100 µM | Malme-3M > 100 µM | SW-620 > 100 µM | IGROV-1 > 100 µM | HCT-116 > 100 µM | SK-MEL-5 > 100 µM | UO-31 > 100 µM | PC-3 > 100 µM | MOLT-4 > 100 µM | SF-295 > 100 µM | A549 > 100 µM | DU-145 > 100 µM | SR > 100 µM | KM12 > 100 µM | BT-549 > 100 µM | SK-MEL-2 > 100 µM | NCI-H23 > 100 µM | NCI-H460 > 100 µM | A498 > 100 µM | TK-10 > 100 µM | SK-OV-3 > 100 µM
> 100 µM: HCT-15
